These results are taken from publication PMC2732992 (Proteins, 2009).

For test [1], the system named is GluR2o / GluR3o expressed in insect cells. Conditions: cited from earlier work; for Affinity for GluR2o higher than for GluR3o: receptors expressed in insect cells.
The next test has as its target GluR2o S1S2 domain (Rattus norvegicus, UniProt P19491, DEL528-650/S652T/V651G). Nature of the test: Inhibition of [3H]AMPA binding to GluR2o S1S2. Conditions: GluR2 S1S2 vs GluR3 S1S2, inhibition of [3H]AMPA binding.

Regarding `N[C@@H](Cn1cc(F)c(=O)[nH]c1=O)C(=O)O` [fluorowillardiine], the “Affinity for GluR2o higher than for GluR3o” value in test [1] is 10 fold.

On to `N[C@@H](Cn1ccc(=O)[nH]c1=O)C(=O)O` [willardiine], for which the “Affinity for GluR2o higher than for GluR3o” value in test [1] was 10 fold.

With `NC(Cc1onc(O)c1Cl)C(=O)O` (stereo not shown) [Cl-HIBO, 4-chlorohomoibotenic acid], the “Difference in affinity (IC50) between GluR2 S1S2 and GluR3 S1S2” value at GluR2o S1S2 domain was “ten-fold”. In addition, the “Affinity of homomeric GluR2 greater than GluR3” value in test [1] (homomeric receptors, same expression system (insect cells)) is “approximately 100 fold”.
